Values after ≈ are worked out from the molar mass of the structure shown. Values joined by “and” are separate entries in the source; they are usually repeats but may differ in a detail not shown here. Identical values can stand only once.
What was measured:
Type in all cases: physicochemical
[1] = Solubility in NMP-water binary mixtures; settings: for solubility at 24 h: thermodynamic from solid
Description: (§1) The calibration curves for each derivative were obtained using successful dilutions of initial stock solutions followed by spectrophotometric measurements of the obtained solutions with decreasing concentration. The concentration ranges for the derivatives 1, 2, and 3 were 0.0081–0.0405 mg/mL, 0.0077–0.0385 mg/mL, and 0.0068–0.017 mg/mL, respectively. Methanol was used both as a solvent, as well as a reference for spectrophotometric measurements. […] The A360 spectrophotometer from AOE Instruments was used for the preparation of the calibration curves. […] Three calibration curves were prepared for each derivative and then averaged.
(§2) A multi-step procedure was employed in order to find the solubility of the studied derivatives in the selected solvents. First of all, the excess amount of the considered compound was added to test tubes containing either neat solvents or their mixtures with water in different proportions, thus forming binary solvents. Saturated solutions were obtained in this way, placed in a Shaker Incubator ES-20/60 from Biosan, and incubated for 24 h at 298.1 K. The temperature adjustment was possible with a 0.1-degree accuracy, and the variance within a 24 h cycle was 0.5 degrees. The samples were simultaneously mixed at 60 rev/min. After incubation, the samples were filtered with the help of plastic syringes equipped with PTFE filters with 0.22 µm pore size. The obtained filtrates were diluted with methanol in another set of test tubes. In order to determine the mole fractions of a solute in the solution, 1 mL of the filtered samples was weighed in 10 mL volumetric flasks using a RADWAG AS 110 R2.PLUS analytical balance. The samples diluted with methanol were measured spectrophotometrically using the same instrument as was used in the case of calibration curves. The spectra were recorded in the wavelength range of 190–500 nm, and the resolution was 1 nm. Methanol was used if further dilution of the sample was required, and it was also used as a reference for calibrating the spectrophotometer. The absorbance values at 315 nm, 321 nm, and 321 nm were taken into account for derivatives 1, 2, and 3, respectively. Based on the calibration curves, the concentration of the solute in the samples was determined together with its mole fraction. Three separate measurements were conducted, and the final values are the results of averaging them.

[2] = Solubility in neat solvents, shake-flask with spectrophotometric determination; settings: for solubility at 24 h: 25 °C, organic solvent or mixture, thermodynamic from solid
Description: as §1, §2

[3] = Solubility in DMSO-water binary mixtures; settings: for solubility at 24 h: 25 °C, thermodynamic from solid
Description: as §1, §2

[4] = neat γ-nonanoic lactone, 298.1 K

Work on O=C1Nc2ccc([N+](=O)[O-])cc2C1=NNC(=O)c1cccc([N+](=O)[O-])c1 [derivative 3, 3-nitro-N′-[5-nitro-2-oxo-1,2-dihydro-3H-indol-3-ylidene]benzohydrazide] yielded a solubility at 24 h ([1]; NMP-water binary mixture, x*NMP 0.1, 25 °C, aqueous with cosolvent or surfactant or cyclodextrin, x*NMP 0.1, 298.1 K) of 1.58 mg/mL (≈ 4.45 mM), a solubility at 24 h ([1]; NMP-water binary mixture, x*NMP 0.2, 25 °C, aqueous with cosolvent or surfactant or cyclodextrin, x*NMP 0.2, 298.1 K) of 3.29 mg/mL (≈ 9.26 mM) and a solubility at 24 h ([1]; NMP-water binary mixture, x*NMP 0.3, 25 °C, aqueous with cosolvent or surfactant or cyclodextrin, x*NMP 0.3, 298.1 K) of 4.94 mg/mL (≈ 13.9 mM). It also gave a solubility at 24 h ([1]; NMP-water binary mixture, x*NMP 0.4, 25 °C, aqueous with cosolvent or surfactant or cyclodextrin, x*NMP 0.4, 298.1 K) of 6.49 mg/mL (≈ 18.3 mM), a solubility at 24 h ([1]; NMP-water binary mixture, x*NMP 0.7, 25 °C, aqueous with cosolvent or surfactant or cyclodextrin, x*NMP 0.7, 298.1 K) of 9.56 mg/mL (≈ 26.9 mM) and a solubility at 24 h ([1]; NMP-water binary mixture, x*NMP 0.8, 25 °C, aqueous with cosolvent or surfactant or cyclodextrin, x*NMP 0.8, 298.1 K) of 10.2 mg/mL (≈ 28.7 mM). It also gave a solubility at 24 h ([1]; NMP-water binary mixture, x*NMP 0.9, 25 °C, aqueous with cosolvent or surfactant or cyclodextrin, x*NMP 0.9, 298.1 K) of 9.71 mg/mL (≈ 27.3 mM), a solubility at 24 h ([1]; NMP-water binary solvent, 25 °C, aqueous with cosolvent or surfactant or cyclodextrin, x*NMP 0.5, 298.1 K) of 7.72 mg/mL (≈ 21.7 mM) and a solubility at 24 h ([1]; NMP-water binary solvent, 25 °C, aqueous with cosolvent or surfactant or cyclodextrin, x*NMP 0.6, 298.1 K) of 8.71 mg/mL (≈ 24.5 mM). The solubility at 24 h ([1]; NMP-water series, x*NMP 1.0, 25 °C, organic solvent or mixture, x*NMP 1.0, 298.1 K) was 8.99 mg/mL (≈ 25.3 mM), the solubility x ([1]; x*NMP 0.1, 298.1 K) was 1.12 (0.01) × 10^−4 mole fraction and the solubility x ([1]; x*NMP 0.2, 298.1 K) was 3.05 (0.03) × 10^−4 mole fraction. The solubility x ([1]; x*NMP 0.3, 298.1 K) was 5.74 (0.10) × 10^−4 mole fraction, the solubility x ([1]; x*NMP 0.4, 298.1 K) was 8.92 (0.10) × 10^−4 mole fraction and the solubility x ([1]; x*NMP 0.5, 298.1 K) was 1.24 (0.01) × 10^−3 mole fraction. For the same molecule, the solubility x ([1]; x*NMP 0.6, 298.1 K) was 1.60 (0.02) × 10^−3 mole fraction, the solubility x ([1]; x*NMP 0.7, 298.1 K) was 1.99 (0.02) × 10^−3 mole fraction and the solubility x ([1]; x*NMP 0.8, 298.1 K) was 2.29 (0.02) × 10^−3 mole fraction. For the same molecule, the solubility x ([1]; x*NMP 0.9, 298.1 K) was 2.40 (0.03) × 10^−3 mole fraction, the solubility x ([1]; x*NMP 1.0, 298.1 K) was 2.44 (0.06) × 10^−3 mole fraction and the solubility at 24 h ([2]; neat DMF, 298.1 K) was 1.69 mg/mL (≈ 4.76 mM). It also gave a solubility at 24 h ([2]; neat DMP, 298.1 K) of 0.08 mg/mL (≈ 0.225 mM), a solubility at 24 h ([2]; neat DMSO, 298.1 K) of 3.09 mg/mL (≈ 8.7 mM) and a solubility at 24 h ([2]; neat NMP, 298.1 K) of 8.99 mg/mL (≈ 25.3 mM). For the same molecule, the solubility at 24 h ([2]; neat acetone, 298.1 K) was 0.21 mg/mL (≈ 0.591 mM), the solubility at 24 h ([2]; neat acetonitrile, 298.1 K) was 0.17 mg/mL (≈ 0.479 mM) and the solubility at 24 h ([2]; neat cyrene, 298.1 K) was 0.29 mg/mL (≈ 0.816 mM). It also gave a solubility at 24 h ([2]; neat diglyme, 298.1 K) of 0.52 mg/mL (≈ 1.46 mM), a solubility at 24 h ([2]; neat dioxane, 298.1 K) of 0.31 mg/mL (≈ 0.873 mM) and a solubility at 24 h ([2]; neat ethyl lactate, 298.1 K) of 0.18 mg/mL (≈ 0.507 mM). The solubility at 24 h ([2]; neat methanol, 298.1 K) was 0.06 mg/mL (≈ 0.169 mM), the solubility at 24 h ([2]; neat tetraglyme, 298.1 K) was 0.43 mg/mL (≈ 1.21 mM) and the solubility at 24 h ([2]; neat triglyme, 298.1 K) was 0.23 mg/mL (≈ 0.647 mM). For the same molecule, the solubility at 24 h ([2]; neat γ-heptalactone, 298.1 K) was 0.44 mg/mL (≈ 1.24 mM), the solubility at 24 h [2, 4] was 0.28 mg/mL (≈ 0.788 mM) and the solubility at 24 h ([2]; neat 1-butanol) was 0.02 mg/mL (≈ 0.0563 mM). For the same molecule, the solubility at 24 h ([2]; neat 1-propanol) was 0.02 mg/mL (≈ 0.0563 mM), the solubility at 24 h ([2]; neat 4FM) was 0.94 mg/mL (≈ 2.65 mM) and the solubility x ([2]; neat 4FM, 298.1 K) was 2.65 (0.11) × 10^−4 mole fraction. For the same molecule, the solubility x ([2]; neat DMF, 298.1 K) was 3.69 × 10^−4 mole fraction and 3.69 (0.05) × 10^−4 mole fraction, the solubility x ([2]; neat DMP, 298.1 K) was 0.27 (0.01) × 10^−4 mole fraction and the solubility x ([2]; neat DMSO, 298.1 K) was 6.12 × 10^−4 mole fraction and 6.12 (0.10) × 10^−4 mole fraction. For the same molecule, the solubility x ([2]; neat NMP, 298.1 K) was 2.44 × 10^−3 mole fraction and 2.44 (0.07) × 10^−3 mole fraction, the solubility x ([2]; neat acetone, 298.1 K) was 0.43 (0.01) × 10^−4 mole fraction and the solubility x ([2]; neat cyrene, 298.1 K) was 0.83 (0.01) × 10^−4 mole fraction. The solubility x ([2]; neat diglyme, 298.1 K) was 2.08 (0.07) × 10^−4 mole fraction, the solubility x ([2]; neat dioxane, 298.1 K) was 0.74 (0.01) × 10^−4 mole fraction and the solubility at 24 h ([2]; neat ethanol) was 0.03 mg/mL (≈ 0.0844 mM). For the same molecule, the solubility x ([2]; neat ethyl lactate, 298.1 K) was 0.57 (0.01) × 10^−4 mole fraction, the solubility x ([2]; neat tetraglyme, 298.1 K) was 2.67 (0.09) × 10^−4 mole fraction and the solubility x ([2]; neat triglyme, 298.1 K) was 1.17 (0.05) × 10^−4 mole fraction. For the same molecule, the solubility x ([2]; neat γ-heptalactone, 298.1 K) was 1.59 (0.04) × 10^−4 mole fraction, the solubility x [2, 4] was 1.26 (0.05) × 10^−4 mole fraction and the solubility at 24 h ([2]; neat ε-caprolactone) was 0.34 mg/mL (≈ 0.957 mM). The solubility x ([2]; neat ε-caprolactone, 298.1 K) was 1.02 (0.02) × 10^−4 mole fraction, the solubility at 24 h ([3]; DMSO-water binary mixture, aqueous with cosolvent or surfactant or cyclodextrin, x*DMSO 0.1, 298.1 K) was 0.86 mg/mL (≈ 2.42 mM) and the solubility at 24 h ([3]; DMSO-water binary mixture, aqueous with cosolvent or surfactant or cyclodextrin, x*DMSO 0.2, 298.1 K) was 1.58 mg/mL (≈ 4.45 mM). For the same molecule, the solubility at 24 h ([3]; DMSO-water binary mixture, aqueous with cosolvent or surfactant or cyclodextrin, x*DMSO 0.3, 298.1 K) was 2.48 mg/mL (≈ 6.98 mM), the solubility at 24 h ([3]; DMSO-water binary mixture, aqueous with cosolvent or surfactant or cyclodextrin, x*DMSO 0.4, 298.1 K) was 3.3 mg/mL (≈ 9.29 mM) and the solubility at 24 h ([3]; DMSO-water binary mixture, aqueous with cosolvent or surfactant or cyclodextrin, x*DMSO 0.5, 298.1 K) was 3.75 mg/mL (≈ 10.6 mM). For the same molecule, the solubility at 24 h ([3]; DMSO-water binary mixture, aqueous with cosolvent or surfactant or cyclodextrin, x*DMSO 0.6, 298.1 K) was 3.95 mg/mL (≈ 11.1 mM), the solubility at 24 h ([3]; DMSO-water binary mixture, aqueous with cosolvent or surfactant or cyclodextrin, x*DMSO 0.7, 298.1 K) was 4.01 mg/mL (≈ 11.3 mM) and the solubility at 24 h ([3]; DMSO-water binary mixture, aqueous with cosolvent or surfactant or cyclodextrin, x*DMSO 0.8, 298.1 K) was 3.85 mg/mL (≈ 10.8 mM). The solubility at 24 h ([3]; DMSO-water binary mixture, aqueous with cosolvent or surfactant or cyclodextrin, x*DMSO 0.9, 298.1 K) was 3.54 mg/mL (≈ 9.96 mM), the solubility at 24 h ([3]; DMSO-water series, organic solvent or mixture, x*DMSO 1.0, 298.1 K) was 3.09 mg/mL (≈ 8.7 mM) and the solubility x ([3]; x*DMSO 0.2, 298.1 K) was 1.21 (0.01) × 10^−4 mole fraction. The solubility x ([3]; x*DMSO 0.3, 298.1 K) was 2.29 (0.01) × 10^−4 mole fraction, the solubility x ([3]; x*DMSO 0.4, 298.1 K) was 3.57 (0.03) × 10^−4 mole fraction and the solubility x ([3]; x*DMSO 0.5, 298.1 K) was 4.59 (0.04) × 10^−4 mole fraction. For the same molecule, the solubility x ([3]; x*DMSO 0.6, 298.1 K) was 5.45 (0.03) × 10^−4 mole fraction, the solubility x ([3]; x*DMSO 0.7, 298.1 K) was 6.09 (0.03) × 10^−4 mole fraction and the solubility x ([3]; x*DMSO 0.8, 298.1 K) was 6.47 (0.04) × 10^−4 mole fraction. For the same molecule, the solubility x ([3]; x*DMSO 0.9, 298.1 K) was 6.51 (0.04) × 10^−4 mole fraction and the solubility x ([3]; x*DMSO 1.0, 298.1 K) was 6.12 (0.07) × 10^−4 mole fraction.

Source: publication PMC10669656, “ADMET and Solubility Analysis of New 5-Nitroisatine-Based Inhibitors of CDK2 Enzymes” (Biomedicines, 2023)
